From patent US7728028B2, “Substituted imidazoline compounds” (Gruenenthal GmbH, priority 2005, dated 2010)

Biological target: T1, human μ-opiate receptor (Homo sapiens, UniProt P35372)
T1 construct: purchased PerkinElmer Life Sciences, Zaventem, Belgium RB-HOM; host or cells: CHO-K1 cells (recombinant expression; membrane preparation)
Assay: Affinity for the human μ-opiate receptor ([3H]-naloxone displacement, SPA)
Details: Table 1, aldehydes; test substance 1 μmole/l; inhibition of specific [3H]-naloxone binding; CHO-K1 membranes; read-out: μ-Opioid receptor, % inhibition [1 μM]
In short: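 CHO-K1 membranes expressing the receptor, incubated 90 min at room temperature with 1 nmol/l [3H]-naloxone and WGA-SPA beads in 50 mmol/l Tris-HCl with 0.06% BSA. Non-specific binding defined with 100 μmol/l naloxone. Value is % inhibition of specific binding at 1 μmol/l test substance.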

T1 sequence (P35372 whole entry): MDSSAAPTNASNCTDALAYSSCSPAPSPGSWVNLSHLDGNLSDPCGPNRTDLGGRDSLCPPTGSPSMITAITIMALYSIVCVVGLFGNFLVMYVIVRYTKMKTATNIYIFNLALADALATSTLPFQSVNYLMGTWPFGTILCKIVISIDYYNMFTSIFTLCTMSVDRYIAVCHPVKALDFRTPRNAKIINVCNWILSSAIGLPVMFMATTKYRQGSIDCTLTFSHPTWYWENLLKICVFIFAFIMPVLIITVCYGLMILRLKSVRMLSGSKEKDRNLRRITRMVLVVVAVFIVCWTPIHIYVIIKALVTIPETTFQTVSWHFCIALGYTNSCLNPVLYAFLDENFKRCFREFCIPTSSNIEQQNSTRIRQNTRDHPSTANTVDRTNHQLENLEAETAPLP

For `CN(C)C(c1ccc(Cl)cc1)C1CCC(C=O)CC1` (stereo not shown) [Example 9c, 4-[(4-chlorophenyl)-dimethylaminomethyl]-cyclohexane-carbaldehyde], the inhibition at 1 µM was 45%.

Same assay, conditions: Table 2, Examples 11-161; test substance 1 μmole/l; inhibition of specific [3H]-naloxone binding; CHO-K1 membranes; read-out: μ-Opioid receptor, % inhibition [1 μM]

First: CCCN1C=NC(Cc2ccc(Cl)cc2)(C(=O)OC)C1C1CCC(C(c2cccc(F)c2)N(C)C)CC1 (stereo not shown) [Example 22, 4-(4-chlorobenzyl)-5-{4-[dimethylamino-(3-fluorophenyl)-methyl]-cyclohexyl}-1-propyl-4,5-dihydro-1H-imidazole-4-carboxylic acid methyl ester]
Second: COC(=O)C1(Cc2ccc(Cl)cc2)N=CN(Cc2ccccc2)C1C1CCC(C(c2cccc(F)c2)N(C)C)CC1 (stereo not shown) [Example 47, 1-benzyl-4-(4-chlorobenzyl)-5-{4-[dimethylamino-(3-fluorophenyl)-methyl]-cyclohexyl}-4,5-dihydro-1H-imidazole-4-carboxylic acid methyl ester]
The inhibition at 1 µM of the first is higher: 88% for the first, 74% for the second.

First: CCCCC1(C(=O)OC)N=CN(CCc2ccccc2)C1C1CCC(C(c2ccc(Cl)cc2)N(C)C)CC1 (stereo not shown) [Example 42, 4-butyl-5-{4-[(4-chlorophenyl)-dimethylaminomethyl]-cyclohexyl}-1-phenethyl-4,5-dihydro-1H-imidazole-4-carboxylic acid methyl ester]
Second: CCCCC1(C(=O)OC)N=CN(Cc2ccccc2)C1CC1CCC(C(c2ccc(Cl)cc2)N(C)C)CC1 (stereo not shown) [Example 114, 1-benzyl-4-butyl-5-{4-[(4-chlorophenyl)-dimethylaminomethyl]-cyclohexylmethyl}-4,5-dihydro-1H-imidazole-4-carboxylic acid methyl ester]
The inhibition at 1 µM of the first is higher: 94% for the first, 86% for the second.

First: CCC(C)C1(C(=O)OC)N=CN(CCc2ccccc2)C1CC1CCC(C(c2cccc(F)c2)N(C)C)CC1 (stereo not shown) [Example 81, 4-sec-butyl-5-{4-[dimethylamino-(3-fluorophenyl)-methyl]-cyclohexylmethyl}-1-phenethyl-4,5-dihydro-1H-imidazole-4-carboxylic acid methyl ester]
Second: COC(=O)C1(C)N=CN(Cc2ccccc2)C1CC1CCC(C(c2cccc(F)c2)N(C)C)CC1 (stereo not shown) [Example 140, 1-benzyl-5-{4-[dimethylamino-(3-fluorophenyl)-methyl]-cyclohexylmethyl}-4-methyl-4,5-dihydro-1H-imidazole-4-carboxylic acid methyl ester]
The inhibition at 1 µM of the first is lower: 76% for the first, 98% for the second.

First: CCC(C)C1(C(=O)OC)N=CN(C2CCCCC2)C1CC1CCC(C(c2ccc(F)cc2)N(C)C)CC1 (stereo not shown) [Example 152, 4-sec-butyl-1-cyclohexyl-5-{4-[dimethylamino-(4-fluorophenyl)-methyl]-cyclohexylmethyl}-4,5-dihydro-1H-imidazole-4-carboxylic acid methyl ester]
Second: COC(=O)C1(C)N=CN(C2CCCCC2)C1CC1CCC(C(c2ccc(F)cc2)N(C)C)CC1 (stereo not shown) [Example 107, 1-cyclohexyl-5-{4-[dimethylamino-(4-fluorophenyl)-methyl]-cyclohexylmethyl}-4-methyl-4,5-dihydro-1H-imidazole-4-carboxylic acid methyl ester]
The inhibition at 1 µM of the first is higher: 93% for the first, 87% for the second.

First: COC(=O)C1(CSC)N=CN(Cc2ccccc2)C1C1CCC(C(c2cccc(F)c2)N(C)C)CC1 (stereo not shown) [Example 96, 1-benzyl-5-{4-[dimethylamino-(3-fluorophenyl)-methyl]-cyclohexyl}-4-methylsulfanylmethyl-4,5-dihydro-1H-imidazole-4-carboxylic acid methyl ester]
Second: CCCCN1C=NC(CSC)(C(=O)OC)C1C1CCC(C(c2cccc(F)c2)N(C)C)CC1 (stereo not shown) [Example 66, 1-butyl-5-{4-[dimethylamino-(3-fluorophenyl)-methyl]-cyclohexyl}-4-methylsulfanylmethyl-4,5-dihydro-1H-imidazole-4-carboxylic acid methyl ester]
The inhibition at 1 µM of the first is higher: 97% for the first, 89% for the second.

First: COC(=O)CCC1(C(=O)OC)N=CN(CCc2ccccc2)C1CC1CCC(C(c2ccc(F)cc2)N(C)C)CC1 (stereo not shown) [Example 83, 5-{4-[dimethylamino-(4-fluorophenyl)-methyl]-cyclohexylmethyl}-4-(2-methoxycarbonylethyl)-1-phenethyl-4,5-dihydro-1H-imidazole-4-carboxylic acid methyl ester]
Second: COC(=O)CCC1(C(=O)OC)N=CN(Cc2ccccc2)C1CC1CCC(C(c2ccc(F)cc2)N(C)C)CC1 (stereo not shown) [Example 87, 1-benzyl-5-{4-[dimethylamino-(4-fluorophenyl)-methyl]-cyclohexylmethyl}-4-(2-methoxycarbonylethyl)-4,5-dihydro-1H-imidazole-4-carboxylic acid methyl ester]
The inhibition at 1 µM of the first is lower: 77% for the first, 95% for the second.

`COC(=O)C1(CSCc2ccccc2)N=CN(Cc2ccccc2)C1C1CCC(C(c2ccc(Cl)cc2)N(C)C)CC1` (stereo not shown) [Example 98, 1-benzyl-4-benzylsulfanylmethyl-5-{4-[(4-chlorophenyl)-dimethylaminomethyl]-cyclohexyl}-4,5-dihydro-1H-imidazole-4-carboxylic acid methyl ester] and `COC(=O)C1(CSCc2ccccc2)N=CN(CCc2ccccc2)C1C1CCC(C(c2cccc(F)c2)N(C)C)CC1` (stereo not shown) [Example 92, 4-benzylsulfanylmethyl-5-{4-[dimethylamino-(3-fluorophenyl)-methyl]-cyclohexyl}-1-phenethyl-4,5-dihydro-1H-imidazole-4-carboxylic acid methyl ester] are the same in inhibition at 1 µM: 95% for the first, 95% for the second.

Compared with `COC(=O)C1(Cc2ccc(Cl)cc2)N=CN(CCc2ccccc2)C1C1CCC(C(c2ccc(Cl)cc2)N(C)C)CC1` (stereo not shown) [Example 41, 4-(4-chlorobenzyl)-5-{4-[(4-chlorophenyl)-dimethylaminomethyl]-cyclohexyl}-1-phenethyl-4,5-dihydro-1H-imidazole-4-carboxylic acid methyl ester], `COC(=O)C1(Cc2ccc(Cl)cc2)N=CN(Cc2ccccc2)C1C1CCC(C(c2ccc(Cl)cc2)N(C)C)CC1` (stereo not shown) [Example 49, 1-benzyl-4-(4-chlorobenzyl)-5-{4-[(4-chlorophenyl)-dimethylaminomethyl]-cyclohexyl}-4,5-dihydro-1H-imidazole-4-carboxylic acid methyl ester] is higher in inhibition at 1 µM: 79% for the first, 84% for the second.

Going from `COC(=O)CCC1(C(=O)OC)N=CN(CCc2ccccc2)C1CC1CCC(C(CCc2ccccc2)N(C)C)CC1` (stereo not shown) [Example 84, 5-[4-(1-dimethylamino-3-phenylpropyl)-cyclohexylmethyl]-4-(2-methoxycarbonylethyl)-1-phenethyl-4,5-dihydro-1H-imidazole-4-carboxylic acid methyl ester] to `CCCCN1C=NC(CSCc2ccccc2)(C(=O)OC)C1CC1CCC(C(CCc2ccccc2)N(C)C)CC1` (stereo not shown) [Example 79, 4-benzylsulfanylmethyl-1-butyl-5-[4-(1-dimethylamino-3-phenylpropyl)-cyclohexylmethyl]-4,5-dihydro-1H-imidazole-4-carboxylic acid methyl ester], the inhibition at 1 µM rises from 75% to 79%.

First: CCCN1C=NC(C)(C(=O)OC)C1CC1CCC(C(c2cccc(F)c2)N(C)C)CC1 (stereo not shown) [Example 117, 5-{4-[dimethylamino-(3-fluorophenyl)-methyl]-cyclohexylmethyl}-4-methyl-1-propyl-4,5-dihydro-1H-imidazole-4-carboxylic acid methyl ester]
Second: CCCCN1C=NC(C)(C(=O)OC)C1CC1CCC(C(c2cccc(F)c2)N(C)C)CC1 (stereo not shown) [Example 124, 1-butyl-5-{4-[dimethylamino-(3-fluorophenyl)-methyl]-cyclohexylmethyl}-4-methyl-4,5-dihydro-1H-imidazole-4-carboxylic acid methyl ester]
The inhibition at 1 µM of the first is lower: 88% for the first, 95% for the second.

First: CCCCN1C=NC(CCC)(C(=O)OC)C1CC1CCC(C(CCc2ccccc2)N(C)C)CC1 (stereo not shown) [Example 127, 1-butyl-5-[4-(1-dimethylamino-3-phenylpropyl)-cyclohexylmethyl]-4-propyl-4,5-dihydro-1H-imidazole-4-carboxylic acid methyl ester]
Second: CCCN1C=NC(CCC(=O)OC)(C(=O)OC)C1CC1CCC(C(c2cccc(F)c2)N(C)C)CC1 (stereo not shown) [Example 157, 5-{4-[dimethylamino-(3-fluorophenyl)-methyl]-cyclohexylmethyl}-4-(2-methoxycarbonylethyl)-1-propyl-4,5-dihydro-1H-imidazole-4-carboxylic acid methyl ester]
The inhibition at 1 µM of the first is lower: 74% for the first, 91% for the second.

Work on `CCCCN1C=NC(CCC(=O)OC)(C(=O)OC)C1C1CCC(C(c2cccc(F)c2)N(C)C)CC1` (stereo not shown) [Example 65, 1-butyl-5-{4-[dimethylamino-(3-fluorophenyl)-methyl]-cyclohexyl}-4-(2-methoxycarbonylethyl)-4,5-dihydro-1H-imidazole-4-carboxylic acid methyl ester] yielded an inhibition at 1 µM of 78%.

Test system: not given
Assay: not given
Details: not given

In the case of `CN(C)C(c1cccc(F)c1)C1CCC(C=O)CC1` (stereo not shown), the melting point is reported as 40 to 43 °C.
